Laboratory results from PubChem BioAssay AID248 (DTP/NCI, 2004).
Values joined by “and” are separate entries in the source; they are usually repeats but may differ in a detail not shown here. Equal values may be shown once. Inconclusive results and toxic doses are left out.

Tested on: L1210 leukemia ip in BDF1 mice, survival T/C
Assay: NCI In Vivo Anticancer Drug Screen. Data for tumor model L1210 Leukemia (intraperitoneal) in B6D2F1 (BDF1) mice
Conditions: endpoint: mean survival time, higher = longer survival
How it was run: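 Each compound was tested against a transplantable tumor grown in mice. The endpoint was survival, with treated animals benchmarked against vehicle controls as a simple ratio.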

[1] = dose: 50.0 mg/kg/injection, schedule: Q04DX003 (ip), vehicle: saline with Tween-80
[2] = dose: 100.0 mg/kg/injection, schedule: Q01DX009 (ip), vehicle: saline with Tween-80
[3] = dose: 100.0 mg/kg/injection, schedule: Q04DX003 (ip), vehicle: saline with Tween-80
[4] = dose: 200.0 mg/kg/injection, schedule: Q01DX009 (ip), vehicle: saline with Tween-80
[5] = dose: 200.0 mg/kg/injection, schedule: Q04DX003 (ip), vehicle: saline with Tween-80
[6] = dose: 400.0 mg/kg/injection, schedule: Q01DX009 (ip), vehicle: saline with Tween-80
[7] = dose: 400.0 mg/kg/injection, schedule: Q04DX003 (ip), vehicle: saline with Tween-80
[8] = dose: 100.0 mg/kg/injection, schedule: Q01DX001 (ip), vehicle: saline
[9] = dose: 200.0 mg/kg/injection, schedule: Q01DX001 (ip), vehicle: saline
[10] = dose: 400.0 mg/kg/injection, schedule: Q01DX001 (ip), vehicle: saline
[11] = dose: 50.0 mg/kg/injection, schedule: Q01DX009 (ip), vehicle: saline
[12] = dose: 100.0 mg/kg/injection, schedule: Q01DX009 (ip), vehicle: saline
[13] = dose: 200.0 mg/kg/injection, schedule: Q01DX009 (ip), vehicle: saline
[14] = dose: 100.0 mg/kg/injection, schedule: Q04DX003 (ip), vehicle: Klucel (hydroxypropylcellulose) (HPC)
[15] = dose: 200.0 mg/kg/injection, schedule: Q04DX003 (ip), vehicle: Klucel (hydroxypropylcellulose) (HPC)
[16] = dose: 400.0 mg/kg/injection, schedule: Q04DX003 (ip), vehicle: Klucel (hydroxypropylcellulose) (HPC)
[17] = dose: 100.0 mg/kg/injection, schedule: Q01DX009 (ip), vehicle: Klucel (hydroxypropylcellulose) (HPC)
[18] = dose: 200.0 mg/kg/injection, schedule: Q01DX009 (ip), vehicle: Klucel (hydroxypropylcellulose) (HPC)
[19] = dose: 400.0 mg/kg/injection, schedule: Q01DX009 (ip), vehicle: Klucel (hydroxypropylcellulose) (HPC)

**Q.** What does the source list for `c1cnc2nc3[nH]c4ccccc4c3nc2c1`?
**A.** T/C (dose: 25.0 mg/kg/injection, schedule: Q01DX009 (ip), vehicle: saline with Tween-80): 92 % of control; T/C (dose: 50.0 mg/kg/injection, schedule: Q01DX001 (oral), vehicle: saline with Tween-80): 107 % of control; T/C (dose: 50.0 mg/kg/injection, schedule: Q01DX009 (ip), vehicle: saline with Tween-80): 92 % of control and 89 % of control; T/C [1]: 96 % of control; T/C (dose: 100.0 mg/kg/injection, schedule: Q01DX001 (oral), vehicle: saline with Tween-80): 115 % of control; T/C [2]: 94 % of control and 91 % of control; T/C [3]: 88 % of control; T/C (dose: 200.0 mg/kg/injection, schedule: Q01DX001 (oral), vehicle: saline with Tween-80): 110 % of control; T/C [4]: 92 % of control and 94 % of control; T/C [5]: 90 % of control; T/C (dose: 400.0 mg/kg/injection, schedule: Q01DX001 (oral), vehicle: saline with Tween-80): 108 % of control; T/C [6]: 92 % of control; T/C [7]: 86 % of control; T/C (dose: 800.0 mg/kg/injection, schedule: Q01DX001 (oral), vehicle: saline with Tween-80): 105 % of control

**Q.** What does the source list for `COc1cc2c(O)cc(C(=O)OC(C)(C)C)c(-c3cc(OC)c(OC)c(OC)c3)c2cc1OC`?
**A.** T/C [8]: 97 % of control; T/C [9]: 95 % of control; T/C [10]: 89 % of control

**Q.** What does the source list for `CN(C(=O)/C=C/C(=O)O)c1ccccc1`?
**A.** T/C (dose: 25.0 mg/kg/injection, schedule: Q01DX009 (ip), vehicle: saline): 104 % of control; T/C [11]: 110 % of control; T/C [1]: 98 % of control; T/C [12]: 105 % of control; T/C [3]: 101 % of control; T/C [13]: 96 % of control; T/C [5]: 95 % of control; T/C [7]: 97 % of control

**Q.** How did the T/C (dose: 5.0 mg/kg/injection, schedule: Q01DX001 (ip), vehicle: saline) turn out when `CCOC(=O)/C(C#N)=C(\C)CC(C)C` was run?
**A.** 101 % of control

**Q.** What about the T/C (dose: 10.0 mg/kg/injection, schedule: Q01DX001 (ip), vehicle: saline) of the same molecule?
**A.** 95 % of control

**Q.** And the T/C (dose: 20.0 mg/kg/injection, schedule: Q01DX001 (ip), vehicle: saline)?
**A.** 95 % of control

**Q.** What about the T/C (dose: 40.0 mg/kg/injection, schedule: Q01DX001 (ip), vehicle: saline) of the same molecule?
**A.** 98 % of control

**Q.** And the T/C (dose: 80.0 mg/kg/injection, schedule: Q01DX001 (ip), vehicle: saline)?
**A.** 101 % of control

**Q.** What about the T/C [8] of the same molecule?
**A.** 98 % of control

**Q.** With `CCOC(=O)c1[nH]c(C)c(C(=O)OCC)c1-c1ccc(OC)cc1` as the molecule, how does the T/C (dose: 100.0 mg/kg/injection, schedule: Q01DX001 (ip), vehicle: Klucel (hydroxypropylcellulose) (HPC)) read?
**A.** 100 % of control

**Q.** And the T/C [14]?
**A.** 96 % of control

**Q.** What about the T/C (dose: 200.0 mg/kg/injection, schedule: Q01DX001 (ip), vehicle: Klucel (hydroxypropylcellulose) (HPC)) of the same molecule?
**A.** 93 % of control

**Q.** And the T/C [15]?
**A.** 108 % of control

**Q.** What about the T/C (dose: 400.0 mg/kg/injection, schedule: Q01DX001 (ip), vehicle: Klucel (hydroxypropylcellulose) (HPC)) of the same molecule?
**A.** 98 % of control

**Q.** What about the T/C [16] of the same molecule?
**A.** 96 % of control

**Q.** Which results are given for `CCC(O)(/C(=N/Nc1ccc([N+](=O)[O-])cc1[N+](=O)[O-])c1ccccc1)c1ccccc1` (configuration not stated)?
**A.** T/C (dose: 100.0 mg/kg/injection, schedule: Q01DX001 (ip), vehicle: saline with Tween-80): 94 % of control; T/C (dose: 200.0 mg/kg/injection, schedule: Q01DX001 (ip), vehicle: saline with Tween-80): 89 % of control; T/C (dose: 400.0 mg/kg/injection, schedule: Q01DX001 (ip), vehicle: saline with Tween-80): 89 % of control

**Q.** For `CN(CCOS(C)(=O)=O)CCOS(C)(=O)=O`, which T/C (dose: 0.1 mg/kg/injection, schedule: Q01DX009 (ip), vehicle: saline) is on record?
**A.** 123 % of control

**Q.** What about the T/C (dose: 0.17 mg/kg/injection, schedule: Q01DX009 (ip), vehicle: saline) of the same molecule?
**A.** 118 % of control

**Q.** What about the T/C (dose: 0.2 mg/kg/injection, schedule: Q01DX009 (ip), vehicle: saline) of the same molecule?
**A.** 161 % of control

**Q.** What about the T/C (dose: 0.26 mg/kg/injection, schedule: Q01DX009 (ip), vehicle: saline) of the same molecule?
**A.** 122 % of control

**Q.** What about the T/C (dose: 0.28 mg/kg/injection, schedule: Q01DX001 (ip), vehicle: saline) of the same molecule?
**A.** 110 % of control

**Q.** And the T/C (dose: 0.4 mg/kg/injection, schedule: Q01DX001 (ip), vehicle: saline)?
**A.** 115 % of control

**Q.** And the T/C (dose: 0.4 mg/kg/injection, schedule: Q01DX009 (ip), vehicle: saline)?
**A.** 183 % of control

**Q.** What about the T/C (dose: 0.44 mg/kg/injection, schedule: Q01DX001 (ip), vehicle: saline) of the same molecule?
**A.** 121 % of control

**Q.** What about the T/C (dose: 0.66 mg/kg/injection, schedule: Q01DX009 (ip), vehicle: saline) of the same molecule?
**A.** 101 % of control

**Q.** What about the T/C (dose: 0.8 mg/kg/injection, schedule: Q01DX009 (ip), vehicle: saline) of the same molecule?
**A.** 163 % of control

**Q.** And the T/C (dose: 1.0 mg/kg/injection, schedule: Q01DX009 (ip), vehicle: saline)?
**A.** 109 % of control

**Q.** And the T/C (dose: 1.5 mg/kg/injection, schedule: Q01DX009 (ip), vehicle: saline)?
**A.** 88 % of control

**Q.** What about the T/C (dose: 1.6 mg/kg/injection, schedule: Q01DX009 (ip), vehicle: saline) of the same molecule?
**A.** 92 % of control

**Q.** What about the T/C (dose: 2.25 mg/kg/injection, schedule: Q01DX001 (ip), vehicle: saline) of the same molecule?
**A.** 156 % of control

**Q.** And the T/C (dose: 4.5 mg/kg/injection, schedule: Q01DX001 (ip), vehicle: saline)?
**A.** 104 % of control

**Q.** And the T/C (dose: 38.0 micrograms/kg/injection, schedule: Q01DX009 (ip), vehicle: saline)?
**A.** 113 % of control

**Q.** What about the T/C (dose: 58.0 micrograms/kg/injection, schedule: Q01DX009 (ip), vehicle: saline) of the same molecule?
**A.** 123 % of control

**Q.** And the T/C (dose: 88.0 micrograms/kg/injection, schedule: Q01DX009 (ip), vehicle: saline)?
**A.** 115 % of control

**Q.** And the T/C (dose: 132.0 micrograms/kg/injection, schedule: Q01DX009 (ip), vehicle: saline)?
**A.** 151 % of control

**Q.** What about the T/C (dose: 200.0 micrograms/kg/injection, schedule: Q01DX009 (ip), vehicle: saline) of the same molecule?
**A.** 90 % of control

**Q.** How did the T/C [17] turn out when `O=C(NCCCl)NC1c2ccccc2CCc2ccccc21` was run?
**A.** 94 % of control

**Q.** And the T/C [14]?
**A.** 106 % of control

**Q.** What about the T/C [18] of the same molecule?
**A.** 88 % of control

**Q.** And the T/C [15]?
**A.** 105 % of control

**Q.** What about the T/C [19] of the same molecule?
**A.** 98 % of control

**Q.** What about the T/C [16] of the same molecule?
**A.** 90 % of control

**Q.** For `CCOC(=O)C(C)C1CCCc2c(C)ccc(C)c21` (configuration not stated), which T/C [17] is on record?
**A.** 100 % of control

**Q.** And the T/C [14]?
**A.** 98 % of control

**Q.** What about the T/C [18] of the same molecule?
**A.** 102 % of control

**Q.** And the T/C [15]?
**A.** 92 % of control

**Q.** And the T/C [19]?
**A.** 93 % of control

**Q.** What about the T/C [16] of the same molecule?
**A.** 98 % of control

**Q.** How did the T/C [8] turn out when `O=S(=O)(O)c1ccncc1` was run?
**A.** 96 % of control

**Q.** And the T/C [12]?
**A.** 96 % of control

**Q.** What about the T/C [9] of the same molecule?
**A.** 91 % of control

**Q.** And the T/C [13]?
**A.** 87 % of control

**Q.** And the T/C [10]?
**A.** 88 % of control

**Q.** And the T/C (dose: 400.0 mg/kg/injection, schedule: Q01DX009 (ip), vehicle: saline)?
**A.** 96 % of control

**Q.** `NC(=O)C1NC(=O)NC1=O` (configuration not stated) was tested. Which T/C [2] did it give?
**A.** 88 % of control

**Q.** What about the T/C [4] of the same molecule?
**A.** 93 % of control

**Q.** And the T/C [6]?
**A.** 97 % of control

**Q.** Which T/C (dose: 100.0 mg/kg/injection, schedule: Q01DX001 (ip), vehicle: other) does the source give for `CN(C)c1ccc(C=Nc2ccccc2)cc1` here?
**A.** 98 % of control

**Q.** And the T/C (dose: 200.0 mg/kg/injection, schedule: Q01DX001 (ip), vehicle: other)?
**A.** 102 % of control

**Q.** What about the T/C (dose: 400.0 mg/kg/injection, schedule: Q01DX001 (ip), vehicle: other) of the same molecule?
**A.** 108 % of control

**Q.** How did the T/C [11] turn out when `C/C=C\C(C)C(C)C` (configuration not stated) was run?
**A.** 93 % of control

**Q.** What about the T/C [12] of the same molecule?
**A.** 97 % of control

**Q.** And the T/C [13]?
**A.** 93 % of control
